The values below come from patent publication US5646155A, “Drugs to prevent recurrent herpes virus infections” (priority 1994, dated 1997).

SMILES strings stand for the structures. ≈ marks a conversion by molar mass, not a printed value. Read-outs that look alike come from different tables or passages of the source.

By IC50 is commonly meant the midpoint of a concentration-inhibition curve. By logP is commonly meant a log measure of how a compound divides between an organic and an aqueous phase. What is called Ki is a measure of affinity in units of concentration, obtained from inhibition or displacement. A higher Ki goes with a looser hold on the target.

One series addresses HSV2 TK (Human herpesvirus 2, UniProt P04407). As to the kind of experiment: HSV2 thymidine kinase inhibition (Table 1). Format: biochemical. The source says:
kinases (TK) from Herpes simplex virus types 1 and 2 (HSV1, HSV2).

The nature of another series: physchem. To be noted: octanol/water.
The nature of series [1]: Solubility in water (Table 1). To be noted: read-out: Sol. in H2O. Format: physicochemical.
Series [2] addresses Varicella Zoster Virus (VZV) Thymidine Kinase (TK) (Varicella-zoster virus, UniProt P09250). As to the kind of experiment: VZV thymidine kinase inhibition (Table 7). Format: biochemical.
In the next series the test system is HSV1, strain McKrae. The series can be described thus: Reactivation in vitro of latent HSV1 strain McKrae from explanted mouse ganglia (Table 6). As to conditions: 15 μM drugs, 7 days, supernatant added to Vero cells. Format: cell-based, mice. The method, then: Screening of compounds is carried out using an in vitro explant cocultivation model in mice. Ocular HSV1 infections are initiated and, after subsidence of the infectious phase (several days), latent HSV1 infection becomes established in the trigeminal ganglia of the mice. The ganglia are then surgically removed and minced or homogenized, and this explanted tissue is cocultivated on mammalian cells, typically Vero cells. The frequency of reactivation is determined as the percentage of ganglia that produce HSV1 virus (as measured by viral cytopathic effect (CPE)) in the cultures. Effective drugs present during the cocultivation period will decrease the frequency of reactivation relative to untreated cocultures. See Leib et al. (J. Virol. 63:759-768 (1989)), incorporated herein by reference, and statements herein for further experimental details.
Latent ocular HSV1 infections were established in mice. Trigeminal gangli
were removed and treated as follows.
^2 Ganglia were minced and incubated for 7 days in the presence of 15
μM drugs; after homogenization, supernatant was added to Vero cells in
culture (courtesy of Dr. Y. J. Gordon, Eye and Ear Institute, Pittsburgh)

Series [3] can be described thus: Absorption and distribution in mice (Table 2). Format: in vivo. To be noted: for Vd/F: i.p.; for half-life: plasma. The source says: Absorption and distribution of 9-substituted-N^2 -phenylquanines in mice.
*i.v., intravenous; i.p., intraperitoneal.

Series [4] can be described thus: Pharmacokinetics in mice following intraperitoneal administration (Table 3). Format: in vivo. To be noted: mouse, ip. The method, then:
Pharmacokinetic parameters of inhibitors in mice
following intraperitoneal (100 mg/Kg) administration (i.p.)
^1 Plasma concentrations were measured by analytical HPLC on a C8
reverse phase column as described in the experimental Section.

In series [5] the test system is HSV1. As to the kind of experiment: Hyperthermia-induced viral DNA synthesis in HSV1 latent mice, QCPCR (Table 5). As to conditions: 200 mg/kg, stressed (43° C. water 10 min), ganglionic DNA. Format: in vivo. As for the experimental part:
(§1) Table 5 provides quantitation of viral DNA using quantitative, competitive polymerase chain reaction methods.
(§2) .dagger-dbl.HSV1 latent mice were treated with HBPG (200 mg/kg), stressed
(§3) by immersion in 43° C. water for 10 min, and sacrificed 24 hours
ΔGanglionic DNA was amplified in quantitative, competitive
polymerase chain reaction (QCPCR) and the copy number of the viral gene
present determined at the equivalence point.

Series [6] has as its system HSV1. As to the kind of experiment: Hyperthermia-induced HSV1 reactivation in mice, infectious virus (Table 4). As to conditions: for Infectious Virus, Ganglion / Infectious Virus, Ocular Surface: 200 mg/kg. Format: in vivo. The method, then: as §1, §2, §3
ΔGanglion homogenates and ocular surface swabs were cocultured on
indicator cells and the appearance of cytopathic effect recorded.

The subject of a further series is HSV1, strain KOS. As to conditions: 150 μM drugs, cocultivated on Vero cells (from Leib et al.); cited from earlier work.
Another series concerns the target HSV1 TK (Human herpesvirus 1, UniProt P0DTH5). As to the kind of experiment: biochemical.
[7] abbreviates: mouse, in vivo, ip, mice, in 90% DMSO/H2O, read-out: Volume of Distribution.
Setting [8] is: mouse, ip, mice, in 90% DMSO/H2O.
The mark [9] stands for this setting: stressed (43° C. water 10 min), sacrificed 24 hours later.
Where [10] appears, read: mouse, ip, pH 11.3, mice, in saline, pH 11.3.

Varicella Zoster Virus (VZV) Thymidine Kinase (TK), sequence (P09250 whole entry, looked up): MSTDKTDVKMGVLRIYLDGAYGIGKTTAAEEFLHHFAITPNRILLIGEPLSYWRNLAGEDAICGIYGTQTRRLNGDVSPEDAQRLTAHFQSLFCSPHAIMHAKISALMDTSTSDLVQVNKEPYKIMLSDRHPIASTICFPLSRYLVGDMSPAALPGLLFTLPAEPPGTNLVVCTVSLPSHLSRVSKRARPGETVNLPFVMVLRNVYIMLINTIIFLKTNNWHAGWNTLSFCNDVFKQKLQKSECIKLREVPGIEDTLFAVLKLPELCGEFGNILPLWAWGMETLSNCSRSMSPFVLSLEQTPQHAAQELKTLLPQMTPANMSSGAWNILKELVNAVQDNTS
HSV2 TK, sequence (P04407 whole entry): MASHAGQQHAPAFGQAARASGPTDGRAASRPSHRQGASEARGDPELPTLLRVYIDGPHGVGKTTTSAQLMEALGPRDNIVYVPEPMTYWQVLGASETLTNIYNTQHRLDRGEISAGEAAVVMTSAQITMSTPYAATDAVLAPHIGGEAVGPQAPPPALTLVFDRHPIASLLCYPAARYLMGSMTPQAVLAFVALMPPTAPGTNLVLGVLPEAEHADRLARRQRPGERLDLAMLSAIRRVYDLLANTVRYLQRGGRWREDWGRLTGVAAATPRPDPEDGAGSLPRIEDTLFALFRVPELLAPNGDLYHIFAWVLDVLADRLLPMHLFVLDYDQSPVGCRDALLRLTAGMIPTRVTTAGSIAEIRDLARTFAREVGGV
HSV1 TK, sequence (P0DTH5 whole entry): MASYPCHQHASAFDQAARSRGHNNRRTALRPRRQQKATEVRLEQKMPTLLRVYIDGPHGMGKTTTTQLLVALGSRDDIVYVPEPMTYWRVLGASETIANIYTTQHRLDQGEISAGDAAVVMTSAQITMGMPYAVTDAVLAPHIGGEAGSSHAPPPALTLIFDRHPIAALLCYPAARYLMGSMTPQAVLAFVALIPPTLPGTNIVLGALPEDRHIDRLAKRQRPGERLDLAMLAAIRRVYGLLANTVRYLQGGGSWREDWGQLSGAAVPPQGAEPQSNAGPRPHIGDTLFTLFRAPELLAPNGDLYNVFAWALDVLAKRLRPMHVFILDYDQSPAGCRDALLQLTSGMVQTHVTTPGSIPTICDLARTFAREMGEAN

With `Oc1[nH]c(Nc2ccccc2)nc2ncnc1-2` [H], at HSV2 TK, the IC50 is 1600 nM.

On to `O=c1[nH]c(Nc2ccccc2)nc2c1ncn2CC(O)CSCCO` (stereo not shown) [CH2 CHCH2SCH2 CH2 OH], for which, in the series “physchem”, the logP was 0.826. Besides, the IC50 on HSV2 TK (read-out: IC50 HSV2 TK) was determined as 1560 nM. In addition, in series [1], the solubility came out at 29.8 µM (≈ 10.8 µg/mL).

As to `O=c1[nH]c(Nc2ccccc2)nc2c1ncn2[C@H]1C[C@H](O)[C@@H](CO)O1` [drawing 15], the logP in “physchem” is 0.398. This compound also had an IC50 against HSV2 TK of 700 nM. Moreover, in [1], the solubility was determined as 81 µM (≈ 27.8 µg/mL).

On to `CCCCCCCCCCCCNc1nc2nc[nH]c2c(=O)[nH]1` [C12 G, N^2 -(n-Dodecyl)guanine], for which, in series [2], the affinity, expressed as Ki, was 3.2 µM and the “Mode of inhibition of VZV TK” value is given as “Competitive inhibitor”.

`CCCCCCCCCCCCCCNc1nc2[nH]cnc2c(=O)[nH]1` [C14 G] gave an IC50 in series [2] of 69 µM.

`O=C(O)Cn1cnc2c(=O)[nH]c(Nc3ccccc3)nc21` [PG-AA, (N^2 -Phenylguan-9-yl)acetic acid]: in the series on HSV1, strain McKrae, the “# ganglia reactivated/# explanted, HSV1 strain McKrae” value is listed as 4/4. Moreover, in [3] (setting [7]), the Vd/F amounted to 1.7 L/kg. For the same compound, the half-life in [3] (setting [8]) worked out at 33 min. Further, in [4] (in vivo, 100 mg/kg), the C0 was determined as 246 µM and the half-life is 26.6 min.

`O=c1[nH]c(Nc2ccccc2)nc2c1ncn2CCCCO` [HB-PG, 9-(4-Hydroxybutyl)-N^2-phenylguanine]: the “Viral DNA” value in the series on HSV1 [5] is listed as < 1 × 10^2 copies. In addition, the “# ganglia reactivated/# explanted, HSV1 strain McKrae” value in the series with HSV1, strain McKrae is 2/4. Moreover, in series [3] (setting [7]), the Vd/F was found to be 12.7 L/kg. Also, the half-life in series [3] (setting [8]) came out at 85 min; in series [3] (mouse, ip, mice, in corn oil), 55 min. In the series “physchem”, this compound gave a logP of 1.26. The compound further showed an IC50 at HSV2 TK of 2200 nM. Moreover, the “Infectious Virus, Ganglion” value was 0/8 in the series on HSV1 [6] (not stressed) and 7/18 in the series with HSV1 [6] (setting [9]). The entries for the “Infectious Virus, Ocular Surface” value in the series on HSV1 [6] (not stressed) and with HSV1 [6] (setting [9]) were 0/9 and 3/20, respectively. In addition, in the series with HSV1 [6] (vs placebo), the “P, difference in frequency of virus in samples from HBPG-treated compared to placebo-treated animals” value was less than 0.05. For the same compound, in [1], the solubility was 56 µM (≈ 16.8 µg/mL). Besides, the C0 in series [4] (in vivo, 100 mg/kg) is 30.5 µM.

Take `C=CCn1cnc2c(=O)[nH]c(Nc3ccccc3)nc21` [CH2 CHCH2]: in the series “physchem”, the logP is 1.75. In addition, in series [1], the solubility came out at 8.1 µM (≈ 2.17 µg/mL).

Take `O=c1[nH]c(Nc2ccccc2)nc2c1ncn2CCO` [HE-PG, 9-(2-Hydroxyethyl)-N^2-phenylguanine]: in the series on HSV1, strain McKrae, the “# ganglia reactivated/# explanted, HSV1 strain McKrae” value is listed as 4/4. In [3] (mice, i.v., in 90% DMSO/H2O), the Plasma half-life turned out to be 15 min and the “Volume of Distribution” value came out at 3.3 L/kg. The Vd/F in series [3] (setting [7]) came out at 4.3 L/kg. Besides, the half-life in series [3] (setting [8]) amounted to 19 min. In “physchem”, this compound had a logP of 0.833. The solubility in [1] came to 156 µM (≈ 42.4 µg/mL). The compound also displayed a C0 in series [4] (in vivo, 100 mg/kg) of 100 µM. Also, the half-life in [4] (plasma, mice, i.p. 100 mg/Kg, 90% DMSO, read-out: Plasma t1/2) turned out to be 21 min.

Turning to `O=c1[nH]c(Nc2cccc(C(F)(F)F)c2)nc2nc[nH]c12` [m-CF3 PG, N^2-(m-[trifluoromethyl]phenyl)guanine, reference compound], the “# ganglia reactivated/# explanted, HSV1 strain McKrae” value in the series with HSV1, strain McKrae is on record as 0/4. In [3] (mice, i.v., in saline, pH 11.3), the Plasma half-life is given as 25 min and the “Volume of Distribution” value came to 3.0 L/kg. This compound also displayed a half-life in series [3] (setting [10]) of 140 min. Besides, the “# ganglia reactivated/# explanted, HSV1 strain KOS” value with HSV1, strain KOS is recorded as 1/20. This compound also showed a C0 in [4] (in vivo, 100 mg/kg, pH 11.4) of 10.2 µM.

Regarding `O=c1[nH]c(Nc2ccccc2)nc2c1ncn2[C@H]1C[C@H](O)[C@@H](CO)O1` [PhdG, 9-(2-Deoxyribofuranosyl)-N^2-phenylguanine], the “# ganglia reactivated/# explanted, HSV1 strain McKrae” value with HSV1, strain McKrae is recorded as 1/4. Besides, in [3] (mouse, in vivo, iv, mice, i.v., in saline, pH 11.3, read-out: Volume of Distribution), the Vd is 0.4 L/kg. Also, the half-life was determined as 60 min in series [3] (setting [10]); 7.5 min in [3] (mouse, iv, pH 11.3, mice, in saline, pH 11.3); 60 min in series [4] (in vivo, 100 mg/kg, pH 11.4). For the same compound, in the series with HSV1, strain KOS, the “# ganglia reactivated/# explanted, HSV1 strain KOS” value is recorded as 3/20. Further, the C0 in [4] (in vivo, 100 mg/kg, pH 11.4) came to 11.7 µM.

For the compound `CCCNc1nc2c(ncn2[C@H]2C[C@H](O)[C@@H](CO)O2)c(=O)[nH]1` [PrdG, 9-(2-deoxyribofuranosyl)-N^2-n-propylguanine], in [2], the IC50 came to 20 µM, affinity was put at a Ki of 13.6 µM and the “Mode of inhibition of VZV TK” value is “Competitive inhibitor”.

`O=c1[nH]c(Nc2ccccc2)nc2c1ncn2CC(O)CO` (stereo not shown) [DHP-PG, 9-(2,3-Dihydroxypropyl)-N^2-phenylguanine]: the “# ganglia reactivated/# explanted, HSV1 strain McKrae” value in the series on HSV1, strain McKrae is on record as 4/4. In “physchem”, this compound had a logP of 0.398. The solubility in [1] was determined as 171 µM (≈ 51.4 µg/mL). In series [4] (in vivo, 100 mg/kg), this compound returned a C0 of 115 µM and a half-life of 17.3 min.

In turn, `O=c1[nH]c(Nc2ccccc2)nc2c1ncn2COC(CO)CO` [CH2OCH(CH2 OH)2] registered an IC50 on HSV1 TK of 500 nM. In the series “physchem”, this compound returned a logP of 0. In [1], the solubility came to 113 µM (≈ 37.4 µg/mL).
